These results are taken from PubChem BioAssay (NCI).

“And” between values parts separate entries of the source, which are not always exact repeats. Identical values can stand only once.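 96-well plates; 48 h exposure; 5 concentrations. Endpoints by linear interpolation between flanking doses. Not reached: highest tested concentration assigned. GI50: concentration for 50% inhibition of growth. Definition used: TGI = concentration required for complete inhibition of growth.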

Among the test systems are CCRF-CEM leukemia; NCI-H522 lung; M14 melanoma; RPMI-8226 leukemia; SNB-75 CNS; MALME-3M melanoma; ACHN renal; NCI-H23 lung.
Holding throughout (experiment): NCI anticancer screen, dose series, 48 h

As to `C/C=C/[C@@H]1OC(=O)C2=C[C@@H](O)[C@@H](/C=C/C)O[C@H]21`, the GI50 in the test with CCRF-CEM leukemia was 0.271 µM; with NCI-H522 lung, 1.93 µM; in the test on M14 melanoma, 3.23 µM; with RPMI-8226 leukemia it was 1.14 µM; with SNB-75 CNS, 14.6 µM; in the test with MALME-3M melanoma, 1.73 µM. Also, the GI50 in the test with ACHN renal was 2.34 µM; with NCI-H23 lung it was 3.08 µM. The TGI with CCRF-CEM leukemia worked out at 5.77 µM; in the test with M14 melanoma, 8.12 µM; in the test on RPMI-8226 leukemia, 3.76 µM; in the test with SNB-75 CNS, 32.4 µM; in the test with MALME-3M melanoma, 5.56 µM; in the test on ACHN renal, 8.01 µM. Moreover, the TGI with NCI-H23 lung stood at 23.3 µM.

For the compound `COC(=O)C(F)C(Br)C(=O)OC` (centres undefined), the TGI worked out at 2.29 µM in the test with CCRF-CEM leukemia; 3.94 µM in the test on NCI-H522 lung; 13.4 µM with M14 melanoma; 3.88 µM in the test with RPMI-8226 leukemia; 31 µM with SNB-75 CNS; 16.5 µM in the test with MALME-3M melanoma. Besides, the TGI with ACHN renal is 3.39 µM; in the test with NCI-H23 lung, 13.5 µM.

`CCCc1cc(=O)n2c(C(=O)Nc3ccccc3OC)c(C(=O)Nc3ccc(F)cc3)sc2n1`: the GI50 in the test on CCRF-CEM leukemia is 24.7 µM; with NCI-H522 lung, 17.7 µM; in the test with M14 melanoma, 23.3 µM; in the test with RPMI-8226 leukemia, 3.15 µM; in the test with SNB-75 CNS, 8.72 µM; in the test on MALME-3M melanoma, 59.5 µM. For the same compound, the figures for the GI50 in the test with ACHN renal and in the test on NCI-H23 lung were 5.11 µM and 37.1 µM, respectively. For the same compound, the TGI with CCRF-CEM leukemia was 59 µM; in the test on NCI-H522 lung, 68 µM; in the test with M14 melanoma it was 110 µM; with RPMI-8226 leukemia, 32.8 µM; in the test on SNB-75 CNS, 35 µM; in the test on MALME-3M melanoma, more than 160 µM. The TGI in the test on ACHN renal was 18.7 µM; in the test with NCI-H23 lung it was more than 160 µM.

Take `c1ccc(P(CCP(CCP(c2ccccc2)c2ccccc2)c2ccccc2)CCP(c2ccccc2)c2ccccc2)cc1` (centres undefined): the TGI was more than 10 µM with CCRF-CEM leukemia; 5.13 µM with NCI-H522 lung; more than 10 µM in the test with M14 melanoma; more than 10 µM in the test with RPMI-8226 leukemia; more than 10 µM in the test on SNB-75 CNS; more than 10 µM in the test on MALME-3M melanoma. Moreover, the TGI in the test on ACHN renal and in the test on NCI-H23 lung was more than 10 µM in each case. For the same compound, the GI50 in the test with M14 melanoma is > 10 µM and 4.18 µM; in the test with SNB-75 CNS, 4.55 µM and 1.91 µM; in the test with ACHN renal, more than 10 µM.

Turning to `Cn1ccnc1C(=O)/C=C/c1ccc(CC(=O)Nc2ccc(C(F)(F)F)cc2)cc1`, the GI50 was 0.658 µM in the test with CCRF-CEM leukemia; 3.35 µM with NCI-H522 lung; 3.72 µM in the test on M14 melanoma; 0.869 µM with RPMI-8226 leukemia; 2.5 µM with SNB-75 CNS; 3.95 µM in the test with MALME-3M melanoma. Moreover, the GI50 in the test on ACHN renal is 2.95 µM; in the test with NCI-H23 lung it was 3.28 µM. The TGI is more than 16.7 µM in the test with CCRF-CEM leukemia; 6.39 µM with NCI-H522 lung; 8.3 µM with M14 melanoma; 5.17 µM in the test on RPMI-8226 leukemia; 8.01 µM with SNB-75 CNS; 10.7 µM in the test with MALME-3M melanoma. Moreover, the TGI is 5.96 µM with ACHN renal and 6.9 µM in the test on NCI-H23 lung.

As to `Nc1n[nH]c2cccc(C#Cc3cccc(C(=O)Nc4cc(CN5CCOCC5)cc(C(F)(F)F)c4)c3)c12`, the GI50 in the test with CCRF-CEM leukemia is 3.68 µM; with NCI-H522 lung, 3.62 µM; in the test on M14 melanoma, 2.13 µM; in the test on RPMI-8226 leukemia it was 3.19 µM; in the test with SNB-75 CNS it was 5.51 µM; with MALME-3M melanoma it was 1.63 µM. Moreover, the GI50 is 3.06 µM with ACHN renal and 3.56 µM with NCI-H23 lung. In addition, the TGI in the test with CCRF-CEM leukemia came out at 20.3 µM; in the test on NCI-H522 lung, 16.2 µM; in the test on M14 melanoma it was 8.32 µM; in the test with RPMI-8226 leukemia it was 27.3 µM; with SNB-75 CNS it was 19.3 µM; with MALME-3M melanoma, 9.88 µM. The TGI was 11.8 µM in the test with ACHN renal and 18.8 µM in the test on NCI-H23 lung.

Consider `COC(=O)C1=C(OC(=O)c2ccc(Cl)cc2)C(C(=O)OC)[C@@]2(O)[C@@H](C(=O)OC)C(c3ccccc3Cl)C[C@@H]1[C@@H]2C(=O)OC` (some centres undefined), for which the GI50 in the test on CCRF-CEM leukemia was 4.3 µM; in the test on NCI-H522 lung it was 2.77 µM; in the test with M14 melanoma, 4.07 µM; in the test on RPMI-8226 leukemia, 8.79 µM; with SNB-75 CNS it was 5.05 µM; in the test on MALME-3M melanoma, 4.85 µM. Also, the values for the GI50 in the test with ACHN renal and in the test with NCI-H23 lung were 3.49 µM and 3.23 µM, respectively. The TGI in the test on CCRF-CEM leukemia is more than 100 µM; in the test on NCI-H522 lung, 7.92 µM; in the test with M14 melanoma, 90.1 µM; in the test on RPMI-8226 leukemia, more than 100 µM; with SNB-75 CNS, 30.3 µM; in the test with MALME-3M melanoma it was 31.7 µM. The TGI in the test with ACHN renal and in the test with NCI-H23 lung was more than 100 µM throughout.

Turning to `N=C(N)c1ccc(COc2ccccc2OCc2ccc(C(=N)N)cc2)cc1`, the GI50 with CCRF-CEM leukemia was 33.1 µM; in the test with NCI-H522 lung, 99.5 µM; in the test with M14 melanoma, 51.2 µM; with RPMI-8226 leukemia it was 16.6 µM; with SNB-75 CNS, 73.8 µM; in the test on MALME-3M melanoma, 19.2 µM. Moreover, the GI50 in the test with ACHN renal is more than 100 µM; in the test with NCI-H23 lung, 49.4 µM. Besides, the TGI with CCRF-CEM leukemia was more than 100 µM; in the test with NCI-H522 lung, more than 100 µM; in the test on M14 melanoma it was more than 100 µM; in the test with RPMI-8226 leukemia it was 99.3 µM; in the test on SNB-75 CNS it was more than 100 µM; with MALME-3M melanoma it was 52.2 µM. The TGI with ACHN renal and with NCI-H23 lung was more than 100 µM each time.
